{"source": "patent US20050042238A1", "about": "“Process for treating aqueous systems” (priority 2003, published 2005)", "key": {"algae": {"test_system": "algae", "assay": "Dosing of micro-mixed emulsion to cooling tower water, control of algae", "settings": "isothiazolone 3 ppm in cooling water of a cooling tower; surfactant-free emulsion from micro-mixer", "description": "A 50 wt. % solution of 4,5-dichloro-2-octyl-3-isothiazolone in benzyl alcohol is fed to an array of slit shaped interdigital micro-mixers at a feed rate of 50 mL/minute, combined with water fed to the micro-mixer at a feed rate of 600 mL/minute. The water contains no surfactants. The resulting emulsion exiting the micro-mixer it is directly dosed to cooling water in a 50,000 gallon […] cooling tower, where is effectively distributed and re-circulated throughout the cooling water. After about 20 minutes, the isothiazolone concentration in the cooling water reaches a desired concentration of 3 ppm and the emulsion feed is stopped. […] Focusing micro-mixers also produce similar results as compared to the micro-mixers described above. Melted 2-octyl-3-isothiazolone as a neat liquid is fed to an array of slit shaped interdigital micro-mixers at a feed rate of 50 mL/minute, combined with water fed to the micro-mixer at a feed rate of 600 mL/minute. The water contains no surfactants and solvents. The resulting emulsion exiting the micro-mixer it is directly dosed to cooling water in a 50,000 gallon […] cooling tower, where is effectively distributed and re-circulated throughout the cooling water. After about 20 minutes, the isothiazolone concentration in the cooling water reaches a desired concentration of 3 ppm and the emulsion feed is stopped. […]"}, "mold": {"test_system": "mold", "assay": "Dosing of micro-mixed emulsion to paper pulp slurry tank, mold proofing of paper", "settings": "50 wt. % solution in benzyl alcohol micro-mixed with water, charged to 10,000 liter pulp slurry tank", "description": "A 10,000 liter pulp slurry tank has a continuous throughput averaging 6,600 liters/minute. A 50 wt. % solution of 4,5-dichloro-2-octyl-3-isothiazolone in benzyl alcohol is fed to an array of slit shaped interdigital micro-mixers at a feed rate of 56 mL/minute, combined with water fed to the micro-mixer at a feed rate of 600 mL/minute. The water contains no surfactants. The resulting emulsion exiting the micro-mixer is directly charged to water in the pulp slurry tank, where it is effectively distributed and re-circulated throughout the tank water. […] Focusing micro-mixers also produce similar results as compared to the micro-mixers described above."}}}
{"smiles": "CCCCCCCCn1sccc1=O", "note": "[2-octyl-3-isothiazolone]", "values": [{"measurement": "control of algae in cooling water", "setting": "algae", "result": "Effective control of algae"}]}
{"smiles": "CCCCCCCCn1sc(Cl)c(Cl)c1=O", "note": "[4,5-dichloro-2-octyl-3-isothiazolone]", "values": [{"measurement": "control of algae in cooling water", "setting": "algae", "result": "Effective control of algae"}, {"measurement": "mold proofing in paper prepared from treated pulp", "setting": "mold", "result": "effective mold proofing"}]}
